Results published in paper PMC10818931, “In Vitro Evaluation of Drug–Drug Interaction Potential of Epetraborole, a Novel Bacterial Leucyl-tRNA Synthetase Inhibitor” (Pharmaceuticals, 2024).
pEC50, pIC50: −log10 of the molar value. In brackets after ≈: the same amount, converted by molar mass.

Columns and labels:
[1] = Solubility in transport buffer; type: physicochemical; details: aqueous buffer, read-out: Soluble up to
MATE2K = target: T1, MATE2K (Homo sapiens, UniProt Q86VL8); assay: Transporter inhibition; type: in vitro ADME; details: read-out: as an Inhibitor, IC50
T1 construct: host or cells: MDCK

CYP3A4 = assay: CYP mRNA induction in plated human hepatocytes (qPCR); details: for Apparent Emax: EBO 0.3–100 µM, M3 1–250 µM; for EC50 at 2 days: human
Procedure: The induction potential of EBO and M3 on CYP1A2, CYP2B6, and 3A4 was evaluated by incubating the test articles with plated human hepatocytes from 3 individual donors (GKJ, ZEY, WKF) in triplicate according to WuXi AppTec (Cranbury, NJ, USA) SOP.
At the end of incubation, the RNA of human hepatocytes was isolated and the mRNA expression levels of CYP 1A2, 2B6, and 3A4 were evaluated by using real-time polymerase chain reaction (qPCR) after being reverse-transcribed (RT) to cDNA following manufacturer’s instruction (thermos Fisher Scientific (Waltham, MA, USA). On the last dosing day with EBO or M3, incubation samples were extracted in triplicate by the addition of ice-cold quench solutions at 0, 0.5, 1, 2, 4, 6, and 24 h after dosing and the extracted samples were analyzed using LC-MS/MS to determine the EBO or M3 concentration in each sample.

MATE1 [2] = target: T2, MATE1 (Homo sapiens, UniProt Q96FL8); assay: Substrate potential in transporter-transfected MDCK cells; type: in vitro ADME
T2 construct: host or cells: MDCK
T2 sequence (Q96FL8 1-570): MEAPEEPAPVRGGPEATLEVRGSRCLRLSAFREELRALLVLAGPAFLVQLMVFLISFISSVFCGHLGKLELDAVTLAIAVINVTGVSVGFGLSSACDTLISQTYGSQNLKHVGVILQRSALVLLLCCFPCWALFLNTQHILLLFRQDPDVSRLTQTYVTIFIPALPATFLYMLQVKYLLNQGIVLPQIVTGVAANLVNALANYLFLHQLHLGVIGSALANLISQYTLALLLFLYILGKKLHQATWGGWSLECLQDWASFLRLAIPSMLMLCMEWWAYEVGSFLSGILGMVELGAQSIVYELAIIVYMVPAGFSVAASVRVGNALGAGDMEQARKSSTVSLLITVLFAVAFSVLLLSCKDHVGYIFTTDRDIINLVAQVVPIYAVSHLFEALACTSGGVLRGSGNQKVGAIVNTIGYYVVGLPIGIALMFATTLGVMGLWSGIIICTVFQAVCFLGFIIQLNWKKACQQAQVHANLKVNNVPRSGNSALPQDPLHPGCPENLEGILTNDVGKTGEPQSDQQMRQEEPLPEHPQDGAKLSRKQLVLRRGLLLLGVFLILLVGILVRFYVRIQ
Procedure: (§1) The uptake of a probe substrate of each transporter was conducted in parallel with the test article in separate wells of the same batch of vector control and transporter-transfected cells. Cells were incubated at 37 °C with 5% CO2 with 500 μL of dosing solution for different periods of time.

OATP1B1 = target: T3, OATP1B1 (Homo sapiens, UniProt Q9Y6L6); assay: as above; type: in vitro ADME
T3 construct: host or cells: MDCK
T3 sequence (Q9Y6L6 1-691): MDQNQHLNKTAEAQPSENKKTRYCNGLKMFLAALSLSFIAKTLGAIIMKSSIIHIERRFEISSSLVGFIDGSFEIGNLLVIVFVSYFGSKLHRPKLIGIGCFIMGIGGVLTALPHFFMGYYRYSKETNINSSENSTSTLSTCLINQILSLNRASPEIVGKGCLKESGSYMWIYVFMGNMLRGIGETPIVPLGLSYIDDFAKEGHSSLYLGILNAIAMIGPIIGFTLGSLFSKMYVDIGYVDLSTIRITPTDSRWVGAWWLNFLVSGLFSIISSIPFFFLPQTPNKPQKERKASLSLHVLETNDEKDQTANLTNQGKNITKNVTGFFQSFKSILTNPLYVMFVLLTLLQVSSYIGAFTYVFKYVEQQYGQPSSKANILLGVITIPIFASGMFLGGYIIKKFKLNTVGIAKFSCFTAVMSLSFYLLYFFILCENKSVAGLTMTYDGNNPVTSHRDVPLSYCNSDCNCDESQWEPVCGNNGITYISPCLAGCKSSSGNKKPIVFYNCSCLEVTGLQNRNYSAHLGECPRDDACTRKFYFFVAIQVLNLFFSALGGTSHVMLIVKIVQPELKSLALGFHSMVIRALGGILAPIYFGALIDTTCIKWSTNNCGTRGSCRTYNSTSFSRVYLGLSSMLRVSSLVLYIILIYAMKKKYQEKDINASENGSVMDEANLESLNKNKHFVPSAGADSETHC
Procedure: as §1

OATP1B3 = target: T4, OATP1B3 (Homo sapiens, UniProt Q9NPD5); assay: as above; type: in vitro ADME
T4 construct: host or cells: MDCK
T4 sequence (Q9NPD5 1-702): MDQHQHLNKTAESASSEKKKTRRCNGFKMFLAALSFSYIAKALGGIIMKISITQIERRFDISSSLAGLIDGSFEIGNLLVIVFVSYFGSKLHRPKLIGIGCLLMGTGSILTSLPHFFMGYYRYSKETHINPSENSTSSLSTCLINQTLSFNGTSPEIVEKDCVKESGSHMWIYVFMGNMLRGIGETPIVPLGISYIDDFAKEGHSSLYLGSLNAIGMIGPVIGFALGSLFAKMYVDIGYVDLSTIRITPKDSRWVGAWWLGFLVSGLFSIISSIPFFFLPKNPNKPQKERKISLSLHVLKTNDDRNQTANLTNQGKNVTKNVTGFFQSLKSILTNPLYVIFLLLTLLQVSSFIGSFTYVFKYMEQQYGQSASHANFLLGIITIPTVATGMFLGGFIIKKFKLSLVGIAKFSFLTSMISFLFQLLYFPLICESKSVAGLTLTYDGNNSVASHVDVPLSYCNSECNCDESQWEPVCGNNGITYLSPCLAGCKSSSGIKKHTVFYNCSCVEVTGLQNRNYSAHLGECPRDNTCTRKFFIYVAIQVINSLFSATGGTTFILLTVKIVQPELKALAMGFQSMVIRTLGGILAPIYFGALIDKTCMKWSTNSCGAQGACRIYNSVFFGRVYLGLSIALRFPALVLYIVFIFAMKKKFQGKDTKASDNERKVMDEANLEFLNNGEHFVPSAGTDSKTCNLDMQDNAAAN
Procedure: as §1

MATE1 [3] = target: T2, MATE1; assay: Transporter inhibition; type: in vitro ADME; details: read-out: as an Inhibitor, IC50
[4] = Solubility in hepatocyte incubation medium; type: physicochemical; details: aqueous buffer, read-out: Soluble in hepatocyte incubation medium at
[5] = at 100 µM, EBO 2 out of 3 donors, M3 1 out of 3 donors

T1 sequence (Q86VL8 1-566 isoform Q86VL8-3): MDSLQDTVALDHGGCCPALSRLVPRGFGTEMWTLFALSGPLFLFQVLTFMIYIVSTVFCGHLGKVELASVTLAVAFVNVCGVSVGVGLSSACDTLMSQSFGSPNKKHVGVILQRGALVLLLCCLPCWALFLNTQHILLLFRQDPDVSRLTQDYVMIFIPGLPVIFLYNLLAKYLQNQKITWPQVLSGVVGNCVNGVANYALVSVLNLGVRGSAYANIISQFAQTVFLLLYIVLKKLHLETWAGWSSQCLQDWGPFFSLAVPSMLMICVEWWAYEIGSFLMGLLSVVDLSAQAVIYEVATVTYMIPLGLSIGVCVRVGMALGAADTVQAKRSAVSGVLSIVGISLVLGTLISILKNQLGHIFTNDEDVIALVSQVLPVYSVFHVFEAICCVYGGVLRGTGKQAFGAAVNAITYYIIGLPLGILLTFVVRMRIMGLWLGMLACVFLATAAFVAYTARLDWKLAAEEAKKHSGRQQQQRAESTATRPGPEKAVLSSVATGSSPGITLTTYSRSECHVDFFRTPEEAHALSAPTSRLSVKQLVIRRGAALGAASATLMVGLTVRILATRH

SMILES	solubility ([1]; transport buffer pH 7.4) [µM]	solubility ([1]; transport buffer pH 8.5) [µM]	pIC50 (MATE2K)	Apparent Emax (CYP3A4; CYP3A4 mRNA, donor one) [Fold]	Apparent Emax (CYP3A4; CYP3A4 mRNA, donor three) [Fold]	Apparent Emax (CYP3A4; CYP3A4 mRNA, donor two) [Fold]	CYP3A4 mRNA expression induction (CYP3A4; [5])	Inducer of CYP3A4 (in words) (CYP3A4; hepatocytes)	EC50 at 2 days (CYP3A4; plated human hepatocytes) [µM]	pEC50 (CYP3A4; read-out: Apparent EC50, CYP3A4 mRNA, donor one)	Influx ratio (MATE1 [2])	as a Substrate (MATE1 [2])	Influx ratio (OATP1B1)	as a Substrate (OATP1B1)	Influx ratio (OATP1B3)	as a Substrate (OATP1B3)	pIC50 (MATE1 [3])	solubility [4] [µM]	CYP3A4 mRNA expression induction (CYP3A4; at 250 µM, 1 out of 3 donors) [fold]	EC50 at 2 days (CYP3A4) [µM]
NC[C@H]1OB(O)c2c(OCCCO)cccc21 [EBO, Epetraborole]	17000 (≈ 4030 µg/mL)	100 (≈ 23.7 µg/mL)	< 4.00	>2.98	<2	>2.93	~ 3 fold	weak inducer	> 100	< 4.00	< 2	No	< 2	No	< 2	No	< 4.00	20000 (≈ 4740 µg/mL)		
NC[C@H]1OB(O)c2c(OCCC(=O)O)cccc21 [M3]	250 (≈ 62.8 µg/mL)	250 (≈ 62.8 µg/mL)	< 3.60	2.16	<2	<2	2.19 fold				< 2	No	< 2	No	< 2	No	< 3.60	250 (≈ 62.8 µg/mL)	2.13	32.4
